Results from the NIST ThermoML archive (doi:10.1016/j.tca.2006.04.022).

Experiment: molar heat capacity at constant pressure
Conditions: 101.33 kPa, Liquid, Vacuum adiabatic calorimetry

CCOS(=O)(=O)[O-].CCn1cc[n+](C)c1 [1-ethyl-3-methylimidazolium ethyl sulfate]
Conditions	molar heat capacity at constant pressure [J/K/mol]
256.73 K	366.3
257.87 K	366.8
259 K	367.1
260.13 K	367.4
261.27 K	367.6
262.4 K	367.8
263.53 K	368
264.66 K	368.3
265.8 K	368.7
266.93 K	369.1
268.06 K	369.4
269.19 K	369.5
270.33 K	369.9
271.45 K	370.3
272.58 K	370.8
273.71 K	371
274.83 K	371.2
275.94 K	371.5
277.06 K	371.8
278.18 K	372
279.28 K	372.4
280.39 K	373
281.5 K	373.1
282.62 K	373.5
283.72 K	373.8
284.83 K	374.2
285.95 K	374.5
287.05 K	374.7
288.15 K	375
289.26 K	375.4
290.37 K	375.6
291.47 K	376
292.58 K	376.1
293.69 K	376.5
294.79 K	376.8
295.9 K	377
297 K	377.4
298.11 K	378
299.22 K	378.2
300.32 K	378.6
301.43 K	378.9
302.54 K	379.1
303.64 K	379.3
304.74 K	379.6
305.86 K	379.9
306.96 K	380.1
308.07 K	380.3
309.18 K	380.4
310.29 K	380.8
311.4 K	380.9
312.52 K	381.2
313.63 K	381.6
314.75 K	381.8
315.85 K	382
316.97 K	382.3
318.08 K	382.7
319.19 K	383
320.31 K	383.1
321.42 K	383.4
322.53 K	383.6
323.66 K	383.9
324.75 K	383.9
325.84 K	384.4
326.92 K	384.6
327.99 K	384.8
329.08 K	384.9
330.17 K	385.1
331.26 K	385.6
332.35 K	385.9
333.43 K	386.1
334.52 K	386.5
335.6 K	386.6
336.68 K	386.9
337.77 K	387.3
338.86 K	387.4
339.94 K	387.8
341.04 K	388.1
342.13 K	388.3
343.22 K	388.6
344.31 K	388.9
345.4 K	389.2
346.49 K	389.5
347.58 K	389.7
348.65 K	390
349.73 K	390.2
350.82 K	390.5
351.91 K	390.8
353.01 K	391.3
354.11 K	391.6
355.22 K	392
356.31 K	392.3
357.42 K	392.5
358.53 K	392.7
359.63 K	392.8
360.75 K	392.9
361.87 K	393.1
363 K	393.4
364.13 K	393.5
365.29 K	393.6
366.38 K	393.9
367.47 K	394.1
368.52 K	394.5
369.63 K	394.7
370.76 K	394.9
371.78 K	395.1
372.82 K	395.3
373.9 K	395.6
374.98 K	395.8
376.02 K	396.2
377.08 K	396.5
378.13 K	396.8
379.52 K	397.1
380.42 K	397.3
381.38 K	397.5
382.35 K	397.8
383.43 K	398
384.34 K	398.2
385.25 K	398.5
386.14 K	398.8
387.09 K	399.1
388.01 K	399.5
388.98 K	399.7
389.95 K	399.9
